Source: patent publication US20080058309A1, “Novel Compounds 171” (ASTRAZENECA AB, priority 2006, published 2008)
Where a name gives a salt, the structure may show the parent alone.

Key:
[1] = molecular target: T1, P2X7 receptor (Homo sapiens, UniProt Q99572); assay: P2X7 receptor antagonist test: bbATP-induced ethidium bromide fluorescence in THP-1 cells; assay type: cell-based; settings: negative logarithm of concentration reducing bbATP agonist activity by 50%, 10^-5M bbATP, 37° C. one hour
T1 construct: 200 μl of a suspension of THP-1 cells; endogenous in cells; host or cells: THP-1 cells
T1 sequence (Q99572 1-595): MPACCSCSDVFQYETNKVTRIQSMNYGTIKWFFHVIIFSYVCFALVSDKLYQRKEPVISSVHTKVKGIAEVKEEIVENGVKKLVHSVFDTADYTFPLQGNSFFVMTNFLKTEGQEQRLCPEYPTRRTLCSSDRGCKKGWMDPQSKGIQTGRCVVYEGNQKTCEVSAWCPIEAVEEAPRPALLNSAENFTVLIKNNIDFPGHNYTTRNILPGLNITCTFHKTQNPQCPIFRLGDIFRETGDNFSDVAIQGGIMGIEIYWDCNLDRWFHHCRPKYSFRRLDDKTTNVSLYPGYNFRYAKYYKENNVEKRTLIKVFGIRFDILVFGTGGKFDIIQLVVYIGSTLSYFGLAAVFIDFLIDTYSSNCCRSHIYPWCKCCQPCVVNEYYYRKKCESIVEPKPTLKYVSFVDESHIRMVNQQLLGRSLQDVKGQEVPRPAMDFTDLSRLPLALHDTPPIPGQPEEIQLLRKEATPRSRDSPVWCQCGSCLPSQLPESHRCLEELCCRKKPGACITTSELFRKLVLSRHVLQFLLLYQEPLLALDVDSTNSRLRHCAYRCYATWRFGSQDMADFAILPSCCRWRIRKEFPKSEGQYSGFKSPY
Text: Certain compounds such as benzoylbenzoyl adenosine triphosphate (bbATP) are known to be agonists of the P2X7 receptor, effecting the formation of pores in the plasma membrane (Drug Development Research (1996), 37(3), p. 126). Consequently, when the receptor is activated using bbATP in the presence of ethidium bromide (a fluorescent DNA probe), an increase in the fluorescence of intracellular DNA-bound ethidium bromide is observed. The increase in fluorescence can be used as a measure of P2X7 receptor activation and therefore to quantify the effect of a compound on the P2X7 receptor.
In this manner, each of the title compounds of the Examples was tested for antagonist activity at the P2X7 receptor. Thus, the test was performed in 96-well flat bottomed microtitre plates, the wells being filled with 250 μl of test solution comprising 200 μl of a suspension of THP-1 cells (2.5×10^6 cells/ml) containing 10^−4M ethidium bromide, 25 μl of a high potassium buffer solution containing 10^−5M bbATP, and 25 μl of the high potassium buffer solution containing concentrations of test compound typically from 30 μM-0.001 μM. The plate was covered with a plastics sheet and incubated at 37° C. for one hour. The plate was then read in a Perkin-Elmer fluorescent plate reader, excitation 520 nm, emission 595 nm, slit widths: Ex 15 nm, Em 20 nm. […]

melting point	SMILES	IC50 [1] [nM]
215 to 219 °C	O=C(CNc1ccccc1Cl)Nc1c(Cl)ccc2nc(N3CC[C@@H](O)C3)ccc12	–
230 to 232 °C	O=C(CNc1ccccc1)Nc1c(Cl)ccc2nc(N3CC[C@@H](O)C3)ccc12	–
175 °C (dec.)	O=C(CNc1ccc(Cl)cc1)Nc1c(Cl)ccc2nc(N3CC[C@@H](O)C3)ccc12 (as salt: hydrochloride)	–
135 to 138 °C	CC(O)C(O)c1ccc2c(NC(=O)CNc3ccc(F)cc3)c(Cl)ccc2n1 (stereo not shown)	–
218 to 220 °C	O=C(CNc1cccc(F)c1)Nc1c(Cl)ccc2nc(N3CC[C@@H](O)C3)ccc12	–
180 °C (dec.)	O=C(CNc1cccc(Cl)c1)Nc1c(Cl)ccc2nc(N3CC[C@@H](O)C3)ccc12 (as salt: hydrochloride)	–
242 to 246 °C	O=C(CNc1ccc(F)cc1)Nc1c(Cl)ccc2nc(N3CC[C@@H](O)C3)ccc12	–
238 to 240 °C	O=C(CNc1ccc(F)c(F)c1)Nc1c(Cl)ccc2nc(N3CC[C@@H](O)C3)ccc12	–
233 to 235 °C	O=C(COc1ccccc1)Nc1c(Cl)ccc2nc(N3CC[C@@H](O)C3)ccc12	–
230 to 233 °C	N#Cc1ccc(NCC(=O)Nc2c(Cl)ccc3nc(N4CC[C@@H](O)C4)ccc23)cc1	–
–	N#Cc1cccc(NCC(=O)Nc2c(Cl)ccc3nc(N4CC[C@@H](O)C4)ccc23)c1 [Example 7, N-[6-Chloro-2-[(3R)-3-hydroxy-1-pyrrolidinyl]-5-quinolinyl]-2-[(3-cyanophenyl)amino]-acetamide]	79.4

SMILES	melting point	IC50 [1] [nM]
O=C(CSc1ccccc1)Nc1c(Cl)ccc2nc(N3CC[C@@H](O)C3)ccc12 [Example 6, N-[6-Chloro-2-[(3R)-3-hydroxy-1-pyrrolidinyl]-5-quinolinyl]-2-(phenylthio)-acetamide]	246 to 249 °C	398
